Measured values as given in patent US11485744B2, “High penetration prodrug compositions of antimicrobials and antimicrobial-related compounds” (priority 2009, dated 2022).

Key:
E. cloacae = assay: MIC against E. cloacae; assay type: cell-based; settings: Enterobacter cloacae; Table 6b; combinations antibiotic/inhibitor
K. pneumonlae = assay: MIC against K. pneumonlae; assay type: cell-based; settings: Table 6b; combinations antibiotic/inhibitor
B. fragilis = assay: MIC against B. fragilis; assay type: cell-based; settings: Bacteroides fragilis; Table 6b; combinations antibiotic/inhibitor
[1] = test system: Trichophyton mentagrophytes; assay: Antifungal MIC in vitro; assay type: cell-based
Microsporum canis = assay: Antifungal MIC in vitro; assay type: cell-based
Aspergillus nidulans = assay: Antifungal MIC in vitro; assay type: cell-based
[2] = Clinical cure of cow mastitis, topical treatment; assay type: in vivo, lactating dairy cows; settings: cows, 500 mg in 10 ml pH 7.4 phosphate buffer sprayed on skin of udder twice per day
Experimental: (§1) 90 lactating dairy cows were recruited. Bacteriological cure was considered to have been achieved if the samples taken from the affected quarter on day 17 and day 22 were free of the bacterial species isolated in the pretreatment sample. Clinical cure was defined as the disappearance of clinical signs of disease which were observed on day 1 before treatment, in other words by the return to normal feed intake, rectal temperature<39.0° C., good general condition, absence of udder edema, normal milk appearance, and normal milk yield.

Staphylococcus aureus = assay: Bacteriological cure of cow mastitis, topical treatment; assay type: in vivo; settings: cows, day 22, topical 500 mg twice per day
Experimental: as §1

Enterobacteriaceae = assay: as above; assay type: in vivo; settings: cows, day 22, topical 500 mg twice per day
Experimental: as §1

Streptococcus uberis = assay: as above; assay type: in vivo; settings: cows, day 22, topical 500 mg twice per day
Experimental: as §1

[3] = test system: Coagulase-negative staphylococci; assay: as above; assay type: in vivo; settings: cows, day 22, topical 500 mg twice per day
Experimental: as §1

E. coli = assay: as above; assay type: in vivo; settings: cows, day 22, topical 500 mg twice per day
Experimental: as §1

Aspergillus niger = assay: Antifungal MIC in vitro; assay type: cell-based
[4] = In vitro penetration across isolated human skin in modified Franz cells; settings: for In vitro Penetration Rate (apparent flux), HPPs: pH 7.4
Fusarium aquaductum = assay: Antifungal MIC in vitro; assay type: cell-based
Candida albicans = assay: Antifungal MIC in vitro; assay type: cell-based
Aspergillus giganteus = assay: Antifungal MIC in vitro; assay type: cell-based
Aspergillus tereus = assay: Antifungal MIC in vitro; assay type: cell-based
Fusarium oxisporum = assay: Antifungal MIC in vitro; assay type: cell-based
[5] = test system: Penicillium carylophilium; assay: Antifungal MIC in vitro; assay type: cell-based
[6] = Conversion of HPPs to parent drugs in human plasma (half life); assay type: in vitro ADME; settings: human, plasma
Experimental: HPPs of antimicrobials or antimicrobial-related compounds converted to the parent antimicrobials or antimicrobial-related compounds quickly in good yield in human plasma.
A HPP of antimicrobial or antimicrobial-related compound (10 mg) was dissolved in 0.1 ml of 0.2M pH 7.4 phosphate buffer. 1 ml of human plasma, preheated to 37° C., was added into the mixture. The mixture was kept in a water bath at 37° C., and at every 2 min intervals 0.2 ml of samples were withdrawn and added to 0.4 ml of methanol to precipitate the plasma protein.

[7] = test system: methicillin-resistant Staphylococcus aureus (MRSA); assay: MIC against MRSA; assay type: cell-based; settings: Staphylococcus aureus, MRSA; Table 6a; read-out: MIC

SMILES	MIC (E. cloacae) [µg/mL]	MIC (K. pneumonlae) [µg/mL]	MIC (B. fragilis) [µg/mL]	Clinical Cure Rate, Day 3 [2] [%]	Clinical Cure Rate, Day 8 [2] [%]	Clinical Cure Rate, Day 15 [2] [%]	Clinical Cure Rate, Day 22 [2] [%]	Bacteriological cure rate, Staphylococcus aureus (Staphylococcus aureus) [%]	Bacteriological cure, No. cured, Staphylococcus aureus (Staphylococcus aureus)	Bacteriological cure rate, Enterobacteriaceae (Enterobacteriaceae) [%]	Bacteriological cure, No. cured, Enterobacteriaceae (Enterobacteriaceae)	Bacteriological cure rate, Streptococcus uberis (Streptococcus uberis) [%]	Bacteriological cure, No. cured, Streptococcus uberis (Streptococcus uberis)	Bacteriological cure rate, Coagulase-negative staphylococci [3] [%]	Bacteriological cure, No. cured, Coagulase-negative staphylococci [3]	Bacteriological cure rate, E. coli (E. coli) [%]	Bacteriological cure, No. cured, E. coli (E. coli)	also measured
CO/N=C(\C(=O)N[C@@H]1C(=O)N2C(C(=O)O)=C(CSc3nc(=O)c(=O)[nH]n3C)CS[C@H]12)c1csc(N)n1 [Ceftriaxone]	1	0.5	8															
CCN(CC)CCOC(=O)C1N2C(=O)C(NC(=O)COc3ccccc3)C2SC1(C)C.Cl (stereo not drawn) [penicillin V-DEE, 6-phenoxyacetacetamidopenicillanic acid 2-diethylaminoethyl ester hydrochloride]				50	90	93	97	67	4	85.7	6	80	8	78	7	87.5	7	Minimum inhibitory concentration, Trichophyton mentagrophytes [1]: 12 µg/mL; Minimum inhibitory concentration, Microsporum canis (Microsporum canis): 2 µg/mL; Minimum inhibitory concentration, Aspergillus nidulans (Aspergillus nidulans): 3 µg/mL; Minimum inhibitory concentration, Aspergillus niger (Aspergillus niger): 3 µg/mL; In vitro Penetration Rate (apparent flux), HPPs [4]: 0.72 ± 0.06 mg/cm^2/h; Minimum inhibitory concentration, Fusarium aquaductum (Fusarium aquaductum): 2 µg/mL; Minimum inhibitory concentration, Candida albicans (Candida albicans): 7 µg/mL; Minimum inhibitory concentration, Aspergillus giganteus (Aspergillus giganteus): 3 µg/mL; Minimum inhibitory concentration, Aspergillus tereus (Aspergillus tereus): 2 µg/mL; Minimum inhibitory concentration, Fusarium oxisporum (Fusarium oxisporum): 3 µg/mL; Minimum inhibitory concentration, Penicillium carylophilium [5]: 2 µg/mL; Half life of HPPs in plasma [6]: 8 ± 1 min
CC1(C)S[C@@H]2[C@H](NC(=O)[C@H](N)c3ccccc3)C(=O)N2[C@H]1C(=O)O [Ampicillin]	5	0.3	68															In vitro Penetration Rate (apparent flux), Parent compounds ([4]; Table 1a, isolated human skin, Franz cells, 10% in 0.2 M phosphate buffer pH 7.4, n=5): <0.015 mg/cm^2/h
CCN(CC)CCOC(=O)C1=CCSC2C(NC(=O)C(=NOC)c3csc(NC(C)=O)n3)C(=O)N12.Cl (stereo not drawn) [ceftizoxime-DEE, 7-[[(2-acetylamino-4-thiazolyl)(methoxyimino)acetyl]amino]-8-oxo-5-thia-1-azabicyclo[4.2.0]oct-2-ene-2-carboxylic acid 2-diethylaminoethyl ester hydrochloride]				53	93	99	100	83	5	83.3	5	82	9	87.5	7	87.5	7	MIC ([1]; Trichophyton mentagrophytes, read-out: Minimum inhibitory concentration, Trichophyton mentagrophytes): 9 µg/mL; MIC (Microsporum canis; Microsporum canis, read-out: Minimum inhibitory concentration, Microsporum canis): 2 µg/mL; MIC (Aspergillus nidulans; Aspergillus nidulans, read-out: Minimum inhibitory concentration, Aspergillus nidulans): 4 µg/mL; MIC (Aspergillus niger; Aspergillus niger, read-out: Minimum inhibitory concentration, Aspergillus niger): 4 µg/mL; In vitro Penetration Rate (apparent flux), HPPs ([4]; human, 10 %): 0.62 ± 0.05 mg/cm^2/h; MIC (Fusarium aquaductum; Fusarium, read-out: Minimum inhibitory concentration, Fusarium aquaductum): 3 µg/mL; MIC (Candida albicans; Candida albicans, read-out: Minimum inhibitory concentration, Candida albicans): 8 µg/mL; MIC (Aspergillus giganteus; Aspergillus giganteus, read-out: Minimum inhibitory concentration, Aspergillus giganteus): 5 µg/mL; MIC (Aspergillus tereus; Aspergillus, read-out: Minimum inhibitory concentration, Aspergillus tereus): 4 µg/mL; MIC (Fusarium oxisporum; Fusarium, read-out: Minimum inhibitory concentration, Fusarium oxisporum): 5 µg/mL; MIC ([5]; Penicillium, read-out: Minimum inhibitory concentration, Penicillium carylophilium): 3 µg/mL; half-life at 9.1 mg/mL ([6]; pH 7.4): 11 min; MIC [7]: 0.5 µg/mL
